Test results: patent US11186592B2, “Thiazolopyridine derivatives as adenosine receptor antagonists” (MERCK PATENT GMBH, priority 2017, dated 2021)

Tests used:
Type in all cases: cell-based
human A2A receptor = biological target: T1, human A2A receptor (Homo sapiens, UniProt P29274); assay: cAMP (HTRF) functional assay, recombinant HEK293 cells expressing human A2A receptor, agonist NECA
T1 construct: expressed in transfected cells; host or cells: HEK293
Protocol: (§1) The functional activities of human A2A, A2B, A1 and A3 receptors were determined by quantification of cAMP, being the second messenger for adenosine receptors.
(§2) Cells were seeded into 384-well plates, forskolin, test compounds and agonists (CPA for A1- and IB-MECA for A3-receptor) were added. After 30 min incubation, HTRF reagents (cAMP dynamic 2, Cis Bio) were added and the cellular cAMP levels were determined using the ENVISION (Perkin Elmer) plate reader. Obtained raw data were normalized against the inhibitor control and the neural control (DMSO) and the normalized data were fitted using GeneData software.

human A2B receptor = biological target: T2, human A2B receptor (Homo sapiens, UniProt P29275); assay: cAMP (HTRF) functional assay, recombinant HEK293 cells expressing human A2B receptor, agonist NECA
T2 construct: expressed in transfected cells; host or cells: HEK293
T2 sequence (P29275 1-332): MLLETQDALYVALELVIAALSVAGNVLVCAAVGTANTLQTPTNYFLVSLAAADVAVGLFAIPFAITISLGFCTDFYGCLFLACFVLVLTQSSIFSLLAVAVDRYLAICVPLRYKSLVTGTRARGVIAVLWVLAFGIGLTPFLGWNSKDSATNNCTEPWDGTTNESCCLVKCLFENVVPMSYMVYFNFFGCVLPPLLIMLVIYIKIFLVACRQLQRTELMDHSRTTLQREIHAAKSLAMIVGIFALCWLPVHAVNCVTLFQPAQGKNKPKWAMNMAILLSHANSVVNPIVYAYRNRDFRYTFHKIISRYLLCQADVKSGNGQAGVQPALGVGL
Protocol: as §1, §2

human A1 receptor = biological target: T3, human A1 receptor (Homo sapiens, UniProt P30542); assay: cAMP (HTRF) functional assay, recombinant CHO cells expressing human A1 receptor, forskolin + agonist CPA
T3 construct: expressed in transfected cells; host or cells: CHO
T3 sequence (P30542 1-326): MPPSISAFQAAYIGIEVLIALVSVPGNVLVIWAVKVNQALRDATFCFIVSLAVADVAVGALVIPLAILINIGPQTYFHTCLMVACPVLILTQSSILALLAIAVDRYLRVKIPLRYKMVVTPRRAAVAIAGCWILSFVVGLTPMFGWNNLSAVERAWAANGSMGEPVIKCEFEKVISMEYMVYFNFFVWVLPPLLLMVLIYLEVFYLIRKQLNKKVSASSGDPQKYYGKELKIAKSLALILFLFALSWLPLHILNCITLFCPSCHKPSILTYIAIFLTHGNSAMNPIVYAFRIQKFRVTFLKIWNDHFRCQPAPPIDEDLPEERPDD
Protocol: as §1
(§3) For human A1 and A3 receptors, recombinant CHO cells, expressing either A1 or A3-receptor, were used. As both receptors couple to Gi proteins, the assay protocol was adapted:
as §2

human A3 receptor = biological target: T4, human A3 receptor (Homo sapiens, UniProt P0DMS8); assay: cAMP (HTRF) functional assay, recombinant CHO cells expressing human A3 receptor, forskolin + agonist IB-MECA
T4 construct: expressed in transfected cells; host or cells: CHO
T4 sequence (P0DMS8 1-318): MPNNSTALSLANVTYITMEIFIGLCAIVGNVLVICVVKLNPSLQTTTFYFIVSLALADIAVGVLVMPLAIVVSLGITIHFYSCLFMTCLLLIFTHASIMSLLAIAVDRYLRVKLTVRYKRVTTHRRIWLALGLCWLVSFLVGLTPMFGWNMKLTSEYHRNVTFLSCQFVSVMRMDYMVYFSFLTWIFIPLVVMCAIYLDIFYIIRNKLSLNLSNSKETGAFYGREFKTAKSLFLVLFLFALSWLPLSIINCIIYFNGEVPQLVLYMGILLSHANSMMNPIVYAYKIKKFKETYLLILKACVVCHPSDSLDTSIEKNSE
Protocol: as §1, §3, §2

T1 sequence (P29274 whole entry): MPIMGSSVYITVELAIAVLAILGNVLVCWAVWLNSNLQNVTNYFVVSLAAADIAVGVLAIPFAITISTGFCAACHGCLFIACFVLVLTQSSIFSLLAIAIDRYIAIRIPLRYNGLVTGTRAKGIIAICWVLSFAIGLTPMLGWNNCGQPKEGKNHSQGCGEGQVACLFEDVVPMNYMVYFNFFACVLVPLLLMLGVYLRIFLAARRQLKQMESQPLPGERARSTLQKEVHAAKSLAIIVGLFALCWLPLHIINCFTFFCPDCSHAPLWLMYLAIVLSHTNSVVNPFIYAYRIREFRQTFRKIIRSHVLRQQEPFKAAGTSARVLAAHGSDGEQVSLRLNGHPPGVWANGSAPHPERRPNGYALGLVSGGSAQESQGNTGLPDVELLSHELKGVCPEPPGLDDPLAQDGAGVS

IC50 (human A2A receptor) | IC50 (human A2B receptor) | IC50 (human A1 receptor) | IC50 (human A3 receptor) | SMILES
< 100 nM | < 100 nM | < 1000 nM | < 1000 nM | COc1ncc(-c2ccccc2)c2sc(NC(=O)[C@H]3C[C@@H]3OC)nc12 (racemic) [compound 202, (1S,2S)-2-methoxy-N-{4-methoxy-7-phenyl-[1,3]thiazolo[4,5-c]pyridin-2-yl}cyclopropane-1-carboxamide]
< 10 nM | < 1000 nM | > 1000 nM | < 1000 nM | COCc1ccc(C(=O)Nc2nc3c(OC)ncc(N4CCOCC4)c3s2)cc1 [compound 3, 4-Methoxymethyl-N-(4-methoxy-7-morpholin-4-yl-thiazolo[4,5-c]pyridin-2-yl)-benzamide]
< 100 nM | < 100 nM | < 1000 nM | > 1000 nM | COc1ncc(N2CCOCC2)c2sc(NC(=O)N3CCC(O)(Cc4ccccc4)CC3)nc12 [compound 7, 4-benzyl-4-hydroxy-N-[4-methoxy-7-(morpholin-4-yl)-[1,3]thiazolo[4,5-c]pyridin-2-yl]piperidine-1-carboxamide]
< 10 nM | < 1000 nM | > 1000 nM | > 1000 nM | COc1ncc(N2CCOCC2)c2sc(NC(=O)N3CCC4(CCOC4)C3)nc12 (stereo not drawn) [compound 9, 2-Oxa-7-aza-spiro[4.4]nonane-7-carboxylic acid (4-methoxy-7-morpholin-4-yl-thiazolo[4,5-c]pyridin-2-yl)-amide]
< 10 nM | < 1000 nM | < 1000 nM | < 1000 nM | COCc1ccc(C(=O)Nc2nc3c(OC)ncc(-c4cnn(C)c4)c3s2)cc1 [compound 14]
< 10 nM | < 100 nM | > 1000 nM | > 1000 nM | COc1ncc(N2CCOCC2)c2sc(NC(=O)c3ccc(C(=O)N(C)C)cc3)nc12 [compound 15, N-(4-Methoxy-7-morpholin-4-yl-thiazolo[4,5-c]pyridin-2-yl)-N′,N′-dimethyl-terephthalamide]
< 10 nM | < 1000 nM | > 1000 nM | > 1000 nM | COc1ncc(N2CCOCC2)c2sc(NC(=O)N3CC[C@]4(CCOC4)C3)nc12 [compound 17, (5S)-N-[4-methoxy-7-(morpholin-4-yl)-[1,3]thiazolo[4,5-c]pyridin-2-yl]-2-oxa-7-azaspiro[4.4]nonane-7-carboxamide]
< 10 nM | < 1000 nM | > 1000 nM | > 1000 nM | COc1ncc(N2CCOCC2)c2sc(NC(=O)N3CC[C@@]4(CCOC4)C3)nc12 [compound 18, (5R)-N-[4-methoxy-7-(morpholin-4-yl)-[1,3]thiazolo[4,5-c]pyridin-2-yl]-2-oxa-7-azaspiro[4.4]nonane-7-carboxamide]
< 10 nM | < 100 nM | < 1000 nM | < 1000 nM | COc1ncc(-c2cnn(C)c2)c2sc(NC(=O)N3CCC(C)(O)CC3)nc12 [compound 21, 4-Hydroxy-4-methyl-piperidine-1-carboxylic acid [4-methoxy-7-(1-methyl-1H-pyrazol-4-yl)-thiazolo[4,5-c]pyridin-2-yl]-amide]
< 10 nM | < 100 nM |  | > 1000 nM | COc1ncc(-c2cnn(C)c2)c2sc(NC(=O)c3cnc(C)s3)nc12 [compound 131, 2-Methyl-thiazole-5-carboxylic acid [4-methoxy-7-(1-methyl-1H-pyrazol-4-yl)-thiazolo[4,5-c]pyridin-2-yl]-amide]
< 10 nM | < 10 nM |  | < 1000 nM | COc1nc(F)c(N2CCOCC2)c2sc(NC(=O)c3cnn(C)c3)nc12 [compound 165, 1-Methyl-1H-pyrazole-4-carboxylic acid (6-fluoro-4-methoxy-7-morpholin-4-yl-thiazolo[4,5-c]pyridin-2-yl)-amide]
< 10 nM | < 100 nM |  | < 1000 nM | COc1nc(Br)c(N2CCOCC2)c2sc(NC(=O)c3cnn(C)c3)nc12 [compound 178, 1-Methyl-1H-pyrazole-4-carboxylic acid (6-bromo-4-methoxy-7-morpholin-4-yl-thiazolo[4,5-c]pyridin-2-yl)-amide]
< 10 nM | < 10 nM |  | < 1000 nM | COc1ncc(-c2ccccc2)c2sc(NC(=O)c3cnn(C)c3)nc12 [compound 188, 1-Methyl-1H-pyrazole-4-carboxylic acid (4-methoxy-7-phenyl-thiazolo[4,5-c]pyridin-2-yl)-amide]
< 10 nM | < 100 nM |  | < 1000 nM | COc1nc(C#N)c(N2CCOCC2)c2sc(NC(=O)c3cnn(C)c3)nc12 [compound 217, 1-Methyl-1H-pyrazole-4-carboxylic acid (6-cyano-4-methoxy-7-morpholin-4-yl-thiazolo[4,5-c]pyridin-2-yl)-amide]
< 10 nM | < 100 nM |  | > 1000 nM | COc1ncc(-c2cccnc2)c2sc(NC(=O)c3ccc(C(=O)N(C)C)cc3)nc12 [compound 218, N-(4-Methoxy-7-pyridin-3-yl-thiazolo[4,5-c]pyridin-2-yl)-N′,N′-dimethyl-terephthalamide]
< 10 nM | < 100 nM |  | < 1000 nM | COc1nc(Cl)c(N2CCOCC2)c2sc(NC(=O)c3cnn(C)c3)nc12 [compound 221, 1-Methyl-1H-pyrazole-4-carboxylic acid (6-chloro-4-methoxy-7-morpholin-4-yl-thiazolo[4,5-c]pyridin-2-yl)-amide]
< 10 nM | < 100 nM |  | > 1000 nM | COc1nc(C)c(-c2ccccc2)c2sc(NC(=O)N3CCC4(CCOCC4)C3)nc12 [compound 223, 8-Oxa-2-aza-spiro[4.5]decane-2-carboxylic acid (4-methoxy-6-methyl-7-phenyl-thiazolo[4,5-c]pyridin-2-yl)-amide]
< 10 nM | < 100 nM |  | < 1000 nM | COCCOc1cccc(-c2cnc(OC)c3nc(NC(=O)c4ccc(C(=O)N(C)C)cc4)sc23)c1 [compound 224, N-{4-Methoxy-7-[3-(2-methoxy-ethoxy)-phenyl]-thiazolo[4,5-c]pyridin-2-yl}-N′,N′-dimethyl-terephthalamide]
< 10 nM | < 100 nM |  | > 1000 nM | COCCOc1cccc(-c2cnc(OC)c3nc(NC(=O)N4CCC5(CCOCC5)C4)sc23)c1 [compound 225, 8-Oxa-2-aza-spiro[4.5]decane-2-carboxylic acid (4-methoxy-7-[3-(2-methoxy-ethoxy)-phenyl]-thiazolo[4,5-c]pyridin-2-yl}-amide]
< 10 nM | < 10 nM |  | > 1000 nM | COc1nc(F)c(N2CCOCC2)c2sc(NC(=O)c3ccc(N4C(=O)CCC4=O)cc3)nc12 [compound 226, 4-(2,5-Dioxo-pyrrolidin-1-yl)-N-(6-fluoro-4-methoxy-7-morpholin-4-yl-thiazolo[4,5-c]pyridin-2-yl)-benzamide]
< 10 nM | < 10 nM |  | > 1000 nM | COc1ncc(-c2ccccc2)c2sc(NC(=O)c3ccc(C(=O)N(C)CCO)cc3)nc12 [compound 227, N-(2-Hydroxy-ethyl)-N′-(4-methoxy-7-phenyl-thiazolo[4,5-c]pyridin-2-yl)-N-methyl-terephthalamide]
< 10 nM | < 100 nM |  | < 1000 nM | COc1ncc(-c2ccccc2)c2sc(NC(=O)c3ccc(C(=O)NCCO)cc3)nc12 [compound 228, N-(2-Hydroxy-ethyl)-N′-(4-methoxy-7-phenyl-thiazolo[4,5-c]pyridin-2-yl)-terephthalamide]
< 10 nM | < 100 nM |  | < 1000 nM | COc1ncc(-c2ccccc2)c2sc(NC(=O)c3ccc(C(=O)NCCN(C)C)cc3)nc12 [compound 230, N-(2-Dimethylamino-ethyl)-N′-(4-methoxy-7-phenyl-thiazolo[4,5-c]pyridin-2-yl)-terephthalamide]
